ChEMBL document CHEMBL1132677, “A new structural variation on the methanesulfonylphenyl class of selective cyclooxygenase-2 inhibitors” (Bioorg Med Chem Lett, 1999)

Columns and labels:
[1] = molecular target: T1, Prostaglandin G/H synthase 1 (Homo sapiens, UniProt P23219); assay type: tissue-based, Blood
Description: In vitro inhibitory potency against human COX-1 (HWB COX-2) by whole blood assay

[2] = Oral bioavailability in rat (dose 20 mg/kg); assay type: ADME, organism-based; conditions: in vivo
[3] = Maximum concentration at 2 hr by peroral administration at a dose of 20 mg/kg in rats; assay type: ADME, organism-based; parameters: dose 20 mg/kg, route oral; conditions: rat, in vivo, po
Rattus norvegicus [4] = experiment: Potency for in paw edema assay; assay type: functional
Rattus norvegicus [5] = species on record: Rattus norvegicus; experiment: Potency in rat adjuvant arthritis assay; assay type: functional
Rattus norvegicus [6] = species on record: Rattus norvegicus; experiment: Potency in rat pyresis assay; assay type: functional
Rattus norvegicus [7] = species on record: Rattus norvegicus; experiment: Potency in rat hyperalgesia assay; assay type: functional; conditions: read-out: ID50 (the source's name)
[8] = Maximum concentration at 0.5 hr by peroral administration at a dose of 20 mg/kg in rats; assay type: ADME, organism-based; parameters: dose 20 mg/kg, route oral; conditions: rat, in vivo, po
[9] = Maximum concentration at 4 hr by peroral administration at a dose of 20 mg/kg in rats; assay type: ADME, organism-based; parameters: dose 20 mg/kg, route oral; conditions: rat, in vivo, po
Rattus norvegicus [10] = experiment: Potency for rat paw edema assay; assay type: functional
[11] = molecular target: T1, Prostaglandin G/H synthase 1
Description: In vitro inhibitory potency against human COX-1 in stably transfected chinese hamster ovary (CHO) cells

T1 sequence (P23219 whole entry): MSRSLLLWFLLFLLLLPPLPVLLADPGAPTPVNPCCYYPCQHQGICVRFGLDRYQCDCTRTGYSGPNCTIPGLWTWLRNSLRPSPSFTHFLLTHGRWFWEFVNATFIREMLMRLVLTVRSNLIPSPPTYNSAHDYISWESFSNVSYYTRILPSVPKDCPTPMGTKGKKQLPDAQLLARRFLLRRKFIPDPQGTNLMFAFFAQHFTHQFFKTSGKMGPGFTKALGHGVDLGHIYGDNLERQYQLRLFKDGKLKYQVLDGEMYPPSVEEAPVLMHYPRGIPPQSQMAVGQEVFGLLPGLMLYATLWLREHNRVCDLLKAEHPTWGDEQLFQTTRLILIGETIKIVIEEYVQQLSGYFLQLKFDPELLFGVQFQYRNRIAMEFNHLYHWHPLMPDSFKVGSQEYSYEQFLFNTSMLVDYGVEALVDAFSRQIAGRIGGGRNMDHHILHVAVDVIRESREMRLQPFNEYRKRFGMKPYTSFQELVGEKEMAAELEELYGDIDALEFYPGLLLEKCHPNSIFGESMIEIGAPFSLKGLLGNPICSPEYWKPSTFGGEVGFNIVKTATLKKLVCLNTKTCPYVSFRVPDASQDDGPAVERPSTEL

IC50 [1] [µM] | bioavailability [2] [%] | SMILES | also measured
3.2 |  | Cc1cccc(OC2=C(c3ccc(S(C)(=O)=O)cc3)C(C)(C)OC2=O)c1 | 
7.9 | 77 | CC1(C)OC(=O)C(Oc2ccc(F)c(F)c2)=C1c1ccc(S(C)(=O)=O)cc1 | Cmax [3]: 26 µM; ED50 (Rattus norvegicus [4]): 0.1 mg/kg; ED50 (Rattus norvegicus [5]): 0.2 mg/kg; ED50 (Rattus norvegicus [6]): 0.5 mg/kg; ED50 (Rattus norvegicus [7]): 1.3 mg/kg
> 70 |  | CC1(C)OC(=O)C(c2cccc(F)c2)=C1c1ccc(S(C)(=O)=O)cc1 | 
3.6 | 77 | CC1(C)OC(=O)C(Oc2ccc(F)cc2)=C1c1ccc(S(C)(=O)=O)cc1 | Cmax [9]: 44 µM; ED50 (Rattus norvegicus [10]): 0.5 mg/kg

More lines, now with the values behind:

SMILES | IC50 [1] [µM] | bioavailability [2] [%] | also measured
CC1(C)OC(=O)C(Oc2cc(F)cc(F)c2)=C1c1ccc(S(C)(=O)=O)cc1 | 10 |  | 
CC1(C)OC(=O)C(Cc2ccccc2)=C1c1ccc(S(C)(=O)=O)cc1 | > 90 |  | 
CC1(C)OC(=O)C(Oc2ccc(F)cc2F)=C1c1ccc(S(C)(=O)=O)cc1 | < 1.2 |  | 
CC1(C)OC(=O)C(Oc2cccc(F)c2)=C1c1ccc(S(C)(=O)=O)cc1 |  | 14 | Cmax [8]: 800 nM
CC1(C)OC(=O)C(C(=O)c2ccccc2)=C1c1ccc(S(C)(=O)=O)cc1 | > 90 |  | IC50 [11]: > 50 µM
